Structures can show the parent of a compound that is named as a salt. Where two headings read alike, the source gives them in different places.
Experiments:
[1] = Cytotoxicity in H9c2 cells (CCK-8); type: cell-based; details: rat, H9c2 cells; for CC50 at 24 h: H9c2 cell line
Method: The cytotoxicity in H9c2 (ATCC®CRL-1446™) cells was also determined. The H9c2 cells were maintained in DMEM (Dulbecco's Modified Eagle's Medium) supplemented with 10% fetal bovine serum (MidSci; S01520HI) and 1% penicillin-streptomycin (Sigma-Aldrich; P4333) at 37° C. with 5% CO2. The H9c2 cells were seeded in 96-well plate one day before the experiment. Different concentrations of di-amidine compounds were added into the H9c2 cells. The cells were then incubated with the compounds for 24 hours at 37° C. with 5% CO2. The cell viability was tested by the CCK-8. Specifically, after 24 hour incubation, 10 μL CCK-8 was added to each well. After 3 hours incubation at 37° C., the absorbance at 450 nm was recorded by a plate reader.

E. coli = test: Sensitization of E. coli (sensitization fold), Example 2; type: cell-based
Method: The sensitization fold of select compounds of the present invention was determined. E. coli bacteria were cultured in nutrient broth at 37° C. overnight prior to treatment. […] Bacterial density was measured based on OD600.

B. subtilis = test: MIC determination and sensitization fold on B. subtilis; type: cell-based; details: B. subtilis; for MIC: compound alone, read-out: MIC; for Sensitization fold: erythromycin
E. coli (ATCC 25922) = test: MIC determination, sensitization fold and FIC index on E. coli; type: cell-based; details: for Sensitization: compound up to 25 μM
How it was run: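 MICs read by OD600 as >90% growth inhibition after two-fold rifampicin dilutions, 5×10^5 CFU/ml E. coli, 24 h, 37 °C, shaken, cation-adjusted Mueller Hinton II broth.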

M. smegmatis = test: MIC on mycobacteria; type: cell-based, Mycobacterium smegmatis; details: for MIC: Mycolicibacterium smegmatis, read-out: MIC on mycobacteria
[2] = Cytotoxicity on mammalian cells (CCK-8), NIH3T3; type: cell-based; details: mouse, NIH3T3 cells, 3T3 cell line
Method: (§1) Cytotoxicity test of bacterial sensitizers on mammalian cells. Cell viability was assessed by using Cell Counting Kit-8 (CCK-8, Dojindo, Japan). HEK293 or NIH3T3 cells were seeded in a 96-well plate one day before the experiment to reach 80% confluency. Cells were then incubated with various concentration of bacterial sensitizers at 37° C. with 5% CO2 for 24 h, then 10 μL of CCK-8 solution was added to each well, and the plate was incubated for an additional at 37° C. 2 h with 5% CO2. The optical density at 450 nm was recorded by plate reader; and the results were calculated as a percentage of viability compared with the untreated control.

[3] = Cytotoxicity on mammalian cells (CCK-8), HEK293; type: cell-based; details: human, HEK293 cells; HEK293 cell line; 24 h
Method: as §1

HEK293 cells = test: Cytotoxicity on mammalian cells (CCK-8), HEK293; type: cell-based; details: Homo sapiens, HEK293
Method: as §1

MRSA (ATCC 33592) = test: MIC determination and sensitization fold on MRSA; type: cell-based, methicillin-resistant Staphylococcus aureus; details: MRSA; rifampicin; compound at 4 μM
Method: Bacteria strains: E. coli (ATCC 25922), A. baumannii (ATCC 17978), K. pneumoniae (43816), S. maltophilia (ATCC 31559), S. typhimurium (ATCC 14028), C. werkmanii (ATCC 51114), S. aureus (ATCC 12600) and methicillin-resistant Staphylococcus aureus (MRSA, ATCC 33592) strains were purchased from ATCC. NR698 was provided.
Bacteria culture and MICs determination: Gram-negative bacteria were cultured in Mueller Hinton II cation-adjusted broth. Gram-positive bacteria were cultured in LB broth. Mycobacterium smegmatis was cultured in Middlebrook 7H9 Broth. MICs of antibiotics itself were determined by performing two-fold serial dilutions of antibiotics. MICs of antibiotics in the presence of bacterial sensitizers were determined by performing two-fold serial dilutions of antibiotics with or without a constant concentration of bacterial sensitizers. The MICs tests were performed on 96-well plates with a final volume of 200 μl Mueller Hinton II cation-adjusted broth in each well. Each well was inoculated with 5×10^5 CFU/ml bacteria and was incubated for 24 h at 37° C. with continuous shaking of 200 rpm. The bacterial density was then determined by OD600. Bacterial growth %=OD600 of antibiotic treatment group/OD600 of antibiotic non-treatment group. MICs was determined as the concentrations that inhibit more than 90% of bacteria growth.
Sensitization fold determination and FIC index calculations: Sensitization fold=MIC of antibiotic only/MIC of antibiotic with bacterial sensitizer. […] Since the MICs were determined by performing two-fold serial dilutions of antibiotic, so the sensitization fold can is the times of 2.
Bacteria strains (as indicated in Table 5B) were cultured with rifampicin at various concentrations in the presence or absence of 10 μM of the indicated compound for 20 h at 37° C. The MIC, sensitization, cytotoxicity, and MIC on mycobacteria were tested according to methods described herein. […] The sensitization activities of compounds on MRSA were tested using rifampicin. The sensitization activities of compounds on E. coli were tested using rifampicin.

[4] = Escherichia coli, ATCC25922, 24 h
[5] = 10 μM compound, rifampicin as the antibiotic (Table 6)

## N=C(N)c1ccc(-c2ccc(-c3ccc(-c4ccc(C(=N)N)o4)o3)o2)o1 [Compound N]
[1]; H9c2 cells (ATCC CRL-1446)
  IC50 at 24 h: 100 µM
E. coli; compound at 25 μM
  Sensitization ability: fold sensitization of E. coli towards rifampicin: At 25 μM, sensitize E. coli towards rifampicin for 64-fold.

## N=C(N)c1ccc(-c2ccc(-c3ccc(C(=N)N)cc3)[se]2)cc1 [Compound R]
[1]
  IC50 at 24 h: > 100 µM
E. coli; compound at 25 μM
  Sensitization ability: fold sensitization of E. coli towards rifampicin: At 25 μM, sensitize E. coli towards rifampicin for 32-fold;

## 1, 4-Bis [((4-amidino)-2-methoxy)-phenoxy methyl]2-fluorobenzene dihydrochloride [MD-104]
B. subtilis
  MIC: 25 µM
B. subtilis; compound at 6 μM
  Sensitization fold: 2-fold at 6.
B. subtilis; compound at 12 μM
  Sensitization fold: 8-fold at 12 μM
E. coli (ATCC 25922); E. coli, compound alone, read-out: MIC
  MIC: 50 µM
E. coli (ATCC 25922); E. coli, rifampicin
  Sensitization: No effect up to 25 μM.
M. smegmatis; M. smegmatis
  MIC on mycobacteria: 6 to 12 µM

## N=C(N)c1ccc(OCc2cccc(COc3ccc(C(=N)N)cc3)c2F)cc1 [DB2573, 1,3-Bis{(4-amidino)-phenoxymethyl}-2-fluorobenzene dihydrochloride]
[1]
  CC50 at 24 h: 50 µM
B. subtilis; compound at 12 μM
  Sensitization fold: 4-fold at 12 μM
B. subtilis; Bacillus subtilis, 24 h
  MIC: 25 µM
E. coli (ATCC 25922); E. coli, rifampicin, compound at 12 μM
  Sensitization fold: 32-fold at 12 μM
E. coli (ATCC 25922); [4]
  MIC: 25 µM
M. smegmatis
  MIC: 12 µM

## N=C(N)Nc1ccc(-c2ccc(-c3ccc(NC(=N)N)cc3Cl)o2)c(Cl)c1 [Compound C]
[1]; H9c2 cells (ATCC CRL-1446)
  IC50 at 24 h: 50 µM
E. coli; compound at 4 μM
  Sensitization ability: fold sensitization of E. coli towards rifampicin: At 4 μM, sensitize E. coli towards rifampicin for 516-fold;

## N=C(N)c1ccc(-c2ccc(-c3ccc(-c4ccc(C(=N)N)cc4)o3)o2)cc1 [Compound T]
[1]; H9c2 cells (ATCC CRL-1446)
  IC50 at 24 h: > 100 µM
E. coli; compound at 25 μM
  Sensitization ability: fold sensitization of E. coli towards rifampicin: At 25 μM, sensitize E. coli towards rifampicin for 32-fold;

## N=C(N)Nc1ccc(-c2ccc(-c3ccc(-c4ccc(NC(=N)N)cc4)o3)o2)cc1 [Compound O]
[1]; H9c2 cells (ATCC CRL-1446)
  IC50 at 24 h: > 100 µM
E. coli; compound at 10 μM
  Sensitization ability: fold sensitization of E. coli towards rifampicin: At 10 μM, sensitize E. coli towards rifampicin for 256-fold.

## N=C(N)Nc1ccc(-c2ccc(-c3ccc(NC(=N)N)cc3)cc2)cc1 [Compound A]
[1]; H9c2 cells (ATCC CRL-1446)
  IC50 at 24 h: 50 µM
E. coli; compound at 25 μM
  Sensitization ability: fold sensitization of E. coli towards rifampicin: At 25 μM, sensitize E. coli towards rifampicin for 256-fold;

## N=C(N)c1ccc(OCc2cc(COc3ccc(C(=N)N)cc3)cc(COc3ccc(C(=N)N)cc3)c2)cc1 [MD-107, 4,4′,4″-((benzene-1,3,5-triyltris(methylene))tris(oxy))tribenzimidamide trihydrochloride]
[2]
  CC50 at 24 h: > 100 µM
[1]
  CC50 at 24 h: > 100 µM
[3]
  CC50 at 24 h: > 100 µM
B. subtilis; compound at 6 μM
  Sensitization fold: 8-fold at 6 μM
B. subtilis; Bacillus subtilis, 24 h
  MIC: 12.5 µM
E. coli (ATCC 25922); E. coli, rifampicin, compound at 12.5 μM
  Sensitization fold: 4-fold at 12.5 μM
E. coli (ATCC 25922); E. coli, rifampicin, compound at 25 μM
  Sensitization fold: 8-fold at 25 μM
E. coli (ATCC 25922); [4]
  MIC: 50 µM
M. smegmatis
  MIC: 3 to 6 µM

## N=C(N)c1ccc(OCc2ccc(COc3ccc(C(=N)N)cc3)cc2)cc1 [MD-101, 1,4-Bis [(4-amidino)-phenoxymethyl]benzene dihydrochloride]
[2]
  CC50 at 24 h: > 100 µM
[1]
  CC50 at 24 h: 50 µM
[3]
  CC50 at 24 h: > 100 µM
B. subtilis; compound at 3 μM
  Sensitization fold: 2-fold at 3 μM.
B. subtilis; compound at 6 μM
  Sensitization fold: 4-fold at 6 μM,
B. subtilis; Bacillus subtilis, 24 h
  MIC: 25 µM
E. coli (ATCC 25922); E. coli, rifampicin
  Sensitization: No effect up to 25 μM
E. coli (ATCC 25922); [4]
  MIC: 100 µM
M. smegmatis
  MIC: 3 to 6 µM

## N=C(N)c1ccc(-c2ccc3[nH]cc(-c4nc5ccc(C(=N)N)cc5[nH]4)c3c2)cc1 [Compound U, 3-(5-Amidinobenzimidazol-2-yl)-5-(4-amidinophenyl)indole acetate salt]
[1]; H9c2 cells (ATCC CRL-1446)
  IC50 at 24 h: 100 µM
E. coli; compound at 10 μM
  Sensitization ability: fold sensitization of E. coli towards rifampicin: At 10 μM, sensitize E. coli towards rifampicin for 32-fold;

## N=C(N)c1ccc(-c2ccc(-c3ccc(-c4ccc(C(=N)N)o4)s3)s2)o1 [Compound P]
[1]; H9c2 cells (ATCC CRL-1446)
  IC50 at 24 h: 50 µM
E. coli; compound at 25 μM
  Sensitization ability: fold sensitization of E. coli towards rifampicin: At 25 μM, sensitize E. coli towards rifampicin for 32-fold;

## CC(C)(C)c1cc(COc2ccc(C(=N)N)cc2)cc(COc2ccc(C(=N)N)cc2)c1 [MD-105, 4,4′-(((5-(tert-butyl)-1,3-phenylene)bis(methylene))bis(oxy))dibenzimidamide dihydrochloride]
[1]
  CC50 at 24 h: 25 µM
HEK293 cells
  IC50: 25 to 50 µM
E. coli (ATCC 25922); [5]
  Sensitization fold: 16 fold
E. coli (ATCC 25922); E. coli, rifampicin, compound at 10 μM
  Sensitization fold: 16-fold at 10 μM.
E. coli (ATCC 25922); [4]
  MIC: 25 µM
M. smegmatis
  MIC: 6 µM

## N=C(N)c1ccc(-c2ccc(-c3ccc(-c4ccc(C(=N)N)o4)o3)o2)cc1 [Compound M]
[1]; H9c2 cells (ATCC CRL-1446)
  IC50 at 24 h: 100 µM
E. coli; compound at 15 μM
  Sensitization ability: fold sensitization of E. coli towards rifampicin: 32 fold
E. coli; compound at 25 μM
  Sensitization ability: fold sensitization of E. coli towards rifampicin: 516 fold

## Cc1cc(COc2ccc(C(=N)NC(C)C)cc2)cc(COc2ccc(C(=N)NC(C)C)cc2)c1 [MD-102, 4,4′-(((5-methyl-1,3-phenylene)bis(methylene))bis(oxy))bis(N-isopropylbenzimidamide) dihydrochloride]
[2]
  CC50 at 24 h: > 100 µM
[1]
  CC50 at 24 h: > 100 µM
[3]
  CC50 at 24 h: > 100 µM
B. subtilis; compound at 2 μM
  Sensitization fold: 4-fold at 2 μM
MRSA (ATCC 33592)
  Sensitization fold: 32-fold at 4 μM
E. coli (ATCC 25922); [5]
  Sensitization fold: 1 fold
E. coli (ATCC 25922); E. coli, rifampicin
  Sensitization: No effect up to 25 μM.
E. coli (ATCC 25922); [4]
  MIC: 50 µM
E. coli (ATCC 25922); rifampicin, compound at up to 10 μM
  sensitization activity: no sensitization activity
M. smegmatis
  MIC: 3 µM

## N=C(N)Nc1ccc(-c2ccc(-c3nc4ccc(NC(=N)N)cc4[nH]3)o2)cc1 [Compound B]
[1]; H9c2 cells (ATCC CRL-1446)
  IC50 at 24 h: 100 µM
E. coli; compound at 25 μM
  Sensitization ability: fold sensitization of E. coli towards rifampicin: At 25 μM, sensitize E. coli towards rifampicin for 16-fold;

## N=C(N)c1ccc(-c2ccc(-c3ccc(-c4ccc(C(=N)N)s4)o3)o2)s1 [Compound Q]
[1]; H9c2 cells (ATCC CRL-1446)
  IC50 at 24 h: 50 µM
E. coli; compound at 25 μM
  Sensitization ability: fold sensitization of E. coli towards rifampicin: At 25 μM, sensitize E. coli towards rifampicin for 32-fold;

From patent US20230105108A1, “COMPOUNDS FOR THE TREATMENT OF BACTERIAL INFECTIONS AND POTENTIATION OF ANTIBIOTICS” (GEORGIA STATE UNIVERSITY RESEARCH FOUNDATION, INC., priority 2019, published 2023)
